These results are taken from ChEMBL document CHEMBL5096238 (J Med Chem, 2022).

Molecules are shown by their SMILES.

Data set [1] has as its system Hs746T. As to the kind of experiment: cells. Particulars: Homo sapiens, 120 h.
The target in data set [2] is Hepatocyte growth factor receptor (Homo sapiens, UniProt P08581). As to the kind of experiment: Inhibition of N-terminal His/SUMO tagged wild type human c-Met (1038 to 1346 residues) transfected in Escherichia coli using Tyr06 peptide as substrate incubated for 1 hr in presence of ATP by FRET-based Z'-Lyte assay.
Chain of Hepatocyte growth factor receptor (P08581 whole entry, the tested form may be a part): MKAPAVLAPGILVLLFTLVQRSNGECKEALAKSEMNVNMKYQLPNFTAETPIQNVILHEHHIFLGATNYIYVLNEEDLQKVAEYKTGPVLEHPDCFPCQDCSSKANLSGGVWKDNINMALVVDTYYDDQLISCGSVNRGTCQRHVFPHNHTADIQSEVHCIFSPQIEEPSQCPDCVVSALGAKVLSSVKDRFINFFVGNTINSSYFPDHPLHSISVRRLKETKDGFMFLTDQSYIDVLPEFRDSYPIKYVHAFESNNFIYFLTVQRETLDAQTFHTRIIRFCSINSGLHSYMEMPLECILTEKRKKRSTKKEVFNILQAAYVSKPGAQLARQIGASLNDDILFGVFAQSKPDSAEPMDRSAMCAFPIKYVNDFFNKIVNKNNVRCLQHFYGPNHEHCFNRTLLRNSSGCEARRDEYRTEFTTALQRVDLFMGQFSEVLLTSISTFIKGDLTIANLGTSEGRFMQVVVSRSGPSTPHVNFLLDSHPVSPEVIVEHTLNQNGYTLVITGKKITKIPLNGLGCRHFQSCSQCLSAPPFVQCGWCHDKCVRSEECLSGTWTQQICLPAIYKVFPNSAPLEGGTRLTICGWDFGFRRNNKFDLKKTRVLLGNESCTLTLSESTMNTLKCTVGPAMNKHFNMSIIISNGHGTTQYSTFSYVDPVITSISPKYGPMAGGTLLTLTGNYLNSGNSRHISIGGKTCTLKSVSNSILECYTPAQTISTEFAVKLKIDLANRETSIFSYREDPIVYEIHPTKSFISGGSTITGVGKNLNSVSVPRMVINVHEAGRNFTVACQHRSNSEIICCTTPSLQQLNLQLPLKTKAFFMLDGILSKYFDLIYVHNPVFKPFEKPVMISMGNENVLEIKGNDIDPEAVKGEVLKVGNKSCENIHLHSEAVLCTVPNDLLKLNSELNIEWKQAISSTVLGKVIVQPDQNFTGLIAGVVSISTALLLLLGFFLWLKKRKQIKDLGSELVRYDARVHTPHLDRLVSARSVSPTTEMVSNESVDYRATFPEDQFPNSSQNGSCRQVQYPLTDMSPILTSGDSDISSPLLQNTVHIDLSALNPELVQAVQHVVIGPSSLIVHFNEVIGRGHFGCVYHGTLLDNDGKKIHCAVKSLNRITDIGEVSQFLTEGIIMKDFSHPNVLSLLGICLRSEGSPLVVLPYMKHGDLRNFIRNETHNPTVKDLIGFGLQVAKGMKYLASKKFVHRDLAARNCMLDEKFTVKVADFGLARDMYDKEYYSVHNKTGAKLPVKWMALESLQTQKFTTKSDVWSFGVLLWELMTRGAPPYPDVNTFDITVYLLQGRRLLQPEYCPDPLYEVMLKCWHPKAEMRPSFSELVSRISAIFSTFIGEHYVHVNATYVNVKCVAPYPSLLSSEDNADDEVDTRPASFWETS
Data set [3] deals with T1, Tyrosine-protein kinase receptor UFO (Homo sapiens, UniProt P30530).
T1 sequence (P30530 whole entry): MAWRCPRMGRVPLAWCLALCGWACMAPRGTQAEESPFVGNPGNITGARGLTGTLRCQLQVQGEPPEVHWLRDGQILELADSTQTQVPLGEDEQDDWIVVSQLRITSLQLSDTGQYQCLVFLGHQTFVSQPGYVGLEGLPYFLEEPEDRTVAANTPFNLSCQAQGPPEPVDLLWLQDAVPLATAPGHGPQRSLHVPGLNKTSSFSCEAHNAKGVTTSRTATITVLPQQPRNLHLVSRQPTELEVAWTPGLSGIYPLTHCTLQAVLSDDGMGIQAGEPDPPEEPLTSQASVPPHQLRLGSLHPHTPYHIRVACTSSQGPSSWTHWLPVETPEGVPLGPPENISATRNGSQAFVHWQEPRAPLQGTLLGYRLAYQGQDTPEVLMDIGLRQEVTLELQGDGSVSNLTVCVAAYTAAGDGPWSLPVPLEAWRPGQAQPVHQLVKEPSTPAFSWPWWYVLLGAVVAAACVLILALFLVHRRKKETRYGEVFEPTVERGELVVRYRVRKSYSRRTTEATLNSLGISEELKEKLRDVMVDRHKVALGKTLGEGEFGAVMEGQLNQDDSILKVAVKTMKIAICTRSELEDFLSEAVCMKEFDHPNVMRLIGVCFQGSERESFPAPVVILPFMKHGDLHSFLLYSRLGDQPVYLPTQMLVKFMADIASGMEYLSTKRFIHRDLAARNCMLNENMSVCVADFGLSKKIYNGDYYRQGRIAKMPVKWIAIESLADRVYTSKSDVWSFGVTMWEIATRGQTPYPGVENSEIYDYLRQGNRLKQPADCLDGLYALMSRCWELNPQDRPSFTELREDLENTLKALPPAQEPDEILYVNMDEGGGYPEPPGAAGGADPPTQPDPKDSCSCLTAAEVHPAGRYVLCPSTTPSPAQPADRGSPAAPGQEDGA
As to the kind of experiment: Inhibition of AXL (unknown origin).

Data set [4] in a line: Apparent permeability across apical to basolateral side in human Caco-2 cells at 10 uM incubated for 120 mins by LC-MS/MS analysis. In kind it is ADME, cell-based. In general terms: Passage across Caco-2 layers is used to estimate intestinal permeability.

Usually IC50 stands for the point on the concentration scale where inhibition reaches its midpoint. On to `Cn1cc(-c2cnc3ccc(CCn4nc(-c5cccc([N+](=O)[O-])c5)ccc4=O)cc3c2)cn1`, for which the IC50 amounted to 331 nM in data set [1] and 15.1 nM in data set [2].
Turning to `CNC(=O)c1ccc(-c2ccc(=O)n(CCc3ccc4ncc(-c5cnn(C6CCOCC6)c5)cc4c3)n2)cc1C(F)(F)F`, the results for the IC50 in data set [2] and in data set [3] were 5.4 nM and 164 nM, respectively.
Regarding `Cn1cc(-c2cnc3ccc(Cn4nc(-c5ccccc5)ccc4=O)cc3c2)cn1`, the IC50 in data set [2] was 138 nM.
`CNC(=O)c1ccc(-c2ccc(=O)n(CC(F)(F)c3ccc4ncc(-c5cnn(C)c5)cc4c3)n2)cc1C(F)(F)F`: the values for the IC50 in data set [1] and in data set [2] were 38.5 nM and 9.9 nM, respectively.
`CNC(=O)c1ccc(-c2ccc(=O)n(CCc3ccc4ncc(NCCN5CCOCC5)cc4c3)n2)cc1C(F)(F)F`: the IC50 in data set [1] came out at 375 nM; in data set [2], 18.4 nM.
On to `Cc1cccc(-c2ccc(=O)n(CCc3ccc4ncc(-c5cnn(C)c5)cc4c3)n2)c1`, for which the IC50 in data set [1] worked out at 328 nM; in data set [2], 8.9 nM.
Consider `Cn1cc(-c2cnc3ccc(CCn4nc(-c5ccc(C(=O)O)cc5)ccc4=O)cc3c2)cn1`, for which the IC50 in data set [1] worked out at 2500 nM; in data set [2], 10.1 nM.
As usually defined, the Papp A→B is how fast a substance crosses the layer from the apical side. As for `O=C1NCCCCCn2cc(cn2)-c2cnc3ccc(cc3c2)CCn2nc(ccc2=O)-c2ccc1c(C(F)(F)F)c2`, the IC50 was found to be 163 nM in data set [1] and 3.3 nM in data set [2]. In data set [4], the Papp A→B at 2 h, 10 µM turned out to be 0.29 ×10⁻⁶ cm/s.
Take `Cn1cc(-c2cnc3ccc(CCn4nc(-c5cccc(C(F)(F)F)c5)ccc4=O)cc3c2)cn1`: the IC50 was 112 nM in data set [1] and 5.4 nM in data set [2].
As to `Cn1cc(-c2ccc(-c3ccc(=O)n(Cc4ccc5ncccc5c4)n3)cc2)cn1`, the IC50 in data set [2] is over 10000 nM.
Regarding `CNC(=O)c1ccc(-c2ccc(=O)n(CCc3ccc4ncc(-c5cnn(C6CCNCC6)c5)cc4c3)n2)cc1C(F)(F)F`, the IC50 was determined as 20.1 nM in data set [1] and 4.2 nM in data set [2].
On to `Cn1cc(-c2cnc3ccc(CCn4nc(-c5cccc(F)c5)ccc4=O)cc3c2)cn1`, for which the IC50 is 397 nM in data set [1] and 10.6 nM in data set [2].
For `CNC(=O)c1ccc(-c2ccc(=O)n(CCc3ccc4ncc(N5CCC(N6CCCC6)CC5)cc4c3)n2)cc1C(F)(F)F`, the IC50 came to 22.8 nM in data set [1] and 14.3 nM in data set [2].
Taken in the same sequence, the figures for `CNC(=O)c1ccc(-c2ccc(=O)n(NC(=O)c3ccc4ncc(-c5cnn(C)c5)cc4c3)n2)cc1C(F)(F)F` were 10000 nM and 2280 nM.
For the molecule `CNC(=O)c1ccc(-c2ccc(=O)n(CCOc3ccc4ncc(-c5cnn(C)c5)cc4c3)n2)cc1C(F)(F)F`, the half-inhibitory concentration (IC50) in data set [1] is 447 nM; in data set [2] it was 78.6 nM.
On to `COC(=O)c1ccc(-c2ccc(=O)n(CCc3ccc4ncc(-c5cnn(C)c5)cc4c3)n2)cc1C(F)(F)F`, for which the 50% inhibitory concentration (IC50) amounted to 102 nM in data set [1] and 4 nM in data set [2].
In the case of `CNC(=O)c1ccc(-c2ccc(=O)n(CCc3ccc4ncc(-c5cnn(CCO)c5)cc4c3)n2)cc1C(F)(F)F`, the values for the IC50 in data set [1] and in data set [2] were 115 nM and 2.8 nM, respectively.
For `Cn1cc(-c2cnc3ccc(CCn4nc(-c5cccc(OC(F)(F)F)c5)ccc4=O)cc3c2)cn1` the same measures were 1440 nM and 20.4 nM.
For `Cn1cc(-c2cnc3ccc(CCn4nc(-c5cccc(Br)c5)ccc4=O)cc3c2)cn1` the same measures were 436 nM and 6.8 nM.
As for `Cn1cc(-c2cnc3ccc(CCn4nc(-c5ccc(C(=O)O)c(C(F)(F)F)c5)ccc4=O)cc3c2)cn1`, the IC50 came out at 4300 nM in data set [1] and 5.8 nM in data set [2].
As to `CNC(=O)c1ccc(-c2ccc(=O)n(CCc3ccc4ncc(N5CCC(N6CCN(C)CC6)CC5)cc4c3)n2)cc1C(F)(F)F`, the figures for the IC50 in data set [1] and in data set [2] were 47.8 nM and 13.9 nM, respectively.
As to `Cn1cc(-c2cnc3ccc(CCn4nc(-c5ccccc5F)ccc4=O)cc3c2)cn1`, the IC50 in data set [1] was found to be 638 nM; in data set [2], 25.9 nM.
For `CNC(=O)c1ccc(-c2ccc(=O)n(CCc3ccc4ncc(-c5cnn(C)c5)cc4c3)n2)cc1`, the IC50 in data set [1] worked out at 137 nM; in data set [2], 4 nM.
Consider `Cn1cc(-c2cnc3ccc(CCn4nc(-c5cccc(C#N)c5)ccc4=O)cc3c2)cn1`, for which the IC50 in data set [1] turned out to be 130 nM; in data set [2], 10.5 nM.
In the case of `Cn1cc(-c2cnc3ccc(CCn4nc(-c5cc(F)c(F)c(F)c5)ccc4=O)cc3c2)cn1`, the IC50 is 228 nM in data set [1] and 7.6 nM in data set [2].
Turning to `CNC(=O)c1ccc(-c2ccc(=O)n(/C=C/c3ccc4ncc(-c5cnn(C)c5)cc4c3)n2)cc1C(F)(F)F`, the IC50 in data set [1] is 3010 nM; in data set [2], 35.6 nM.
For the molecule `CNC(=O)c1ccc(-c2ccc(=O)n(CCc3ccc4ncc(N5CCC(N6CCOCC6)CC5)cc4c3)n2)cc1C(F)(F)F`, the IC50 in data set [1] was found to be 93.4 nM; in data set [2], 13.2 nM.
Regarding `O=c1ccc(-c2ccccc2)nn1Cc1ccc2ncc(N3CCOCC3)cc2c1`, in data set [2], the IC50 was found to be 171 nM.
For the molecule `CNC(=O)c1ccc(-c2ccc(=O)n(CCc3ccc4ncc(-c5cnn(C)c5)cc4c3)n2)cc1C(F)(F)F`, the IC50 is 11.9 nM in data set [1] and 4.8 nM in data set [2].
Regarding `COc1cccc(-c2ccc(=O)n(CCc3ccc4ncc(-c5cnn(C)c5)cc4c3)n2)c1`, the IC50 was 1360 nM in data set [1] and 14.7 nM in data set [2].
For the molecule `O=c1ccc(-c2ccc(N3CCOCC3)cc2)nn1CCc1ccc2ncccc2c1`, the IC50 in data set [2] was 208 nM.
As for `O=c1ccc(-c2ccccc2)nn1Cc1ccc2ncccc2c1`, in data set [2], the IC50 is over 10000 nM.
As for `COC(=O)c1ccc(-c2ccc(=O)n(CCc3ccc4ncc(-c5cnn(C)c5)cc4c3)n2)cc1`, the figures for the IC50 in data set [1] and in data set [2] were 1900 nM and 7.5 nM, respectively.
For `O=c1ccc(-c2ccc(N3CCOCC3)cc2)nn1Cc1ccc2ncccc2c1`, the IC50 in data set [2] was over 10000 nM.
`Cn1cc(-c2cnc3ccc(CCn4nc(-c5ccc(F)c(F)c5)ccc4=O)cc3c2)cn1`: the figures for the IC50 in data set [1] and in data set [2] were 708 nM and 13.2 nM, respectively.
In the case of `CNC(=O)c1ccc(-c2ccc(=O)n(CCc3ccc4ncc(N5CC6CNCC6C5)cc4c3)n2)cc1C(F)(F)F` (centres undefined), the IC50 in data set [1] worked out at 212 nM; in data set [2], 11.4 nM.
As to `CNC(=O)c1ccc(-c2ccc(=O)n(CCc3ccc4ncc(NCCN5CCCCC5)cc4c3)n2)cc1C(F)(F)F`, the IC50 was 428 nM in data set [1] and 26.4 nM in data set [2].
Take `Cc1ccc(-c2ccc(=O)n(CCc3ccc4ncc(-c5cnn(C)c5)cc4c3)n2)cc1`: the IC50 in data set [1] turned out to be 281 nM; in data set [2], 8.2 nM.
Consider `Cn1cc(-c2cnc3ccc(CCn4nc(-c5ccc(F)cc5)ccc4=O)cc3c2)cn1`, for which the IC50 was 488 nM in data set [1] and 18.3 nM in data set [2].
Turning to `Cn1cc(-c2ccc(-c3ccc(=O)n(CCc4ccc5ncccc5c4)n3)cc2)cn1`, in data set [2], the IC50 worked out at 663 nM.
For `Cn1cc(-c2cnc3ccc(CCn4nc(-c5ccccc5)ccc4=O)cc3c2)cn1`, in data set [2], the IC50 was 14.9 nM.
Turning to `CNC(=O)c1ccc(-c2ccc(=O)n(CCc3ccc4ncc(N5CCN(C)CC5)cc4c3)n2)cc1C(F)(F)F`, the figures for the IC50 in data set [1] and in data set [2] were 199 nM and 10.7 nM, respectively.
Turning to `CNC(=O)c1ccc(-c2ccc(=O)n(CCc3ccc4ncc(-c5cnn(CCN6CCOCC6)c5)cc4c3)n2)cc1C(F)(F)F`, the 50% inhibitory concentration (IC50) in data set [1] stood at 187 nM; in data set [2], 5 nM.
As for `O=c1ccc(-c2ccccc2)nn1CCc1ccc2ncc(N3CCOCC3)cc2c1`, the IC50 in data set [2] stood at 41.6 nM.
Consider `Cn1cc(-c2cnc3ccc(CCn4nc(-c5cccc(N)c5)ccc4=O)cc3c2)cn1`, for which the IC50 in data set [1] turned out to be 623 nM; in data set [2] it was 8.7 nM.
Taken in the same sequence, the figures for `CNC(=O)c1ccc(-c2ccc(=O)n(CCc3ccc4ncc(-c5cnn(CCOC)c5)cc4c3)n2)cc1C(F)(F)F` were 45.9 nM and 7.4 nM.
Turning to `O=c1ccc(-c2ccccc2)nn1CCc1ccc2ncccc2c1`, the IC50 in data set [2] amounted to 2000 nM.
Turning to `CNC(=O)c1ccc(-c2ccc(=O)n(CCc3ccc4ncc(-c5cn[nH]c5)cc4c3)n2)cc1C(F)(F)F`, the results for the IC50 in data set [1] and in data set [2] were 106 nM and 6.7 nM, respectively.
Taken in the same sequence, the figures for `Cn1cc(-c2cnc3ccc(CCn4nc(-c5cccc(Cl)c5)ccc4=O)cc3c2)cn1` were 303 nM and 4.9 nM.
